EC50 and Ki data for 14 compounds are collected here from US8846730B2, “Compounds as cannabinoid receptor ligands” (priority 2008, dated 2014).

The target of assay [1] is rat CB1 receptors (HEK cells) (Rattus norvegicus (Rat), UniProt P20272). The experiment in a line: rat CB1 cyclase functional assay (HitHunter cAMP). The class given is cell-based. The procedure: (§1) The cyclase functional assays were performed using the HitHunter™ cAMP assay kit from DiscoveRx (Fremont, Calif.) according to vendor's protocol. Briefly, HEK cells expressing CB2 or CB1 receptors (rat or human) were detached using cell dissociation buffer (Invitrogen, Carlsbad, Calif.), dispersed and placed in suspension at 10,000 cells per well in 96 well plates prior to the assay. Cell suspensions were incubated at 37° C. for 20 min with variable concentrations of test ligands and or 10 μM CP 55,940-positive control in the presence of a fixed concentration of forskolin (18 μM for rat CB2 and 37 μM for rat CB1) in Dulbescco's phosphate-buffered saline (Invitrogen, Carlsbad, Calif.) supplemented with bovine serum albumin (0.01% final concentration). The reactions were terminated by the addition of lysis buffer and the luminescence was detected following the procedure according to the manufacturer's instructions. EC50 values were calculated using sigmoidal dose-response curve fitting from Prism (GraphPad).

Assay [2] has as its target rat CB2 receptors (HEK cells) (Rattus norvegicus (Rat), UniProt Q9QZN9). The experiment in a line: rat CB2 cyclase functional assay (HitHunter cAMP). In kind it is cell-based. The procedure: as §1
For a further assay, the target named is human CB2 receptors (Homo sapiens (Human), UniProt P34972). Nature of the assay: human CB2 radioligand binding assay ([3H]CP 55,940 competition). To be noted: HEK293 membranes, 0.5 nM [3H]CP 55,940; read-out: human CB2 (Ki). As to the method: (§2) The CB1 and CB2 radioligand binding assays described herein are utilized to ascertain the affinity of compounds of the present application for binding to CB2 relative to CB1 receptors.
HEK293 cells stably expressing human CB2 receptors were grown until a confluent monolayer was formed. Briefly, the cells were harvested and homogenized in TE buffer (50 mM Tris-HCl, 1 mM MgCl2, and 1 mM EDTA) using a polytron for 2×10 second bursts in the presence of protease inhibitors, followed by centrifugation at 45,000×g for 20 minutes. The final membrane pellet was re-homogenized in storage buffer (50 mM Tris-HCl, 1 mM MgCl2, and 1 mM EDTA and 10% sucrose) and frozen at −78° C. until used. Saturation binding reactions were initiated by the addition of membrane preparation (protein concentration of 5 μg/well for human CB2) into wells of a deep well plate containing [^3H]CP 55,940 (120 Ci/mmol, a nonselective CB agonist commercially available from Tocris) in assay buffer (50 mM Tris, 2.5 mM EDTA, 5 mM MgCl2, and 0.5 mg/mL fatty acid free BSA, pH 7.4). After 90 min incubation at 30° C., binding reaction was terminated by the addition of 300 μL/well of cold assay buffer followed by rapid vacuum filtration through a UniFilter-96 GF/C filter plates (pre-soaked in 1 mg/mL BSA for 2 hours). The bound activity was counted in a TopCount using Microscint-20. Saturation experiments were conducted with twelve concentrations of [^3H]CP 55,940 ranging from 0.01 to 8 nM. Competition experiments were conducted with 0.5 nM [^3H]CP 55,940 and five concentrations (0.01 nM to 10 μM) of displacing ligands. The addition of 10 μM unlabeled CP 55,940 (Tocris, Ellisville, Mo.) was used to assess nonspecific binding.

The target of another assay is rat CB2 receptors (Rattus norvegicus (Rat), UniProt Q9QZN9). The experiment in a line: rat CB2 radioligand binding assay ([3H]CP 55,940 competition). The note with it: HEK293 membranes, 0.5 nM [3H]CP 55,940. As to the method:
as §2
HEK293 cells stably expressing rat CB2 receptors were grown until a confluent monolayer was formed. Briefly, the cells were harvested and homogenized in TE buffer (50 mM Tris-HCl, 1 mM MgCl2, and 1 mM EDTA) using a polytron for 2×10 second bursts in the presence of protease inhibitors, followed by centrifugation at 45,000×g for 20 minutes. The final membrane pellet was re-homogenized in storage buffer (50 mM Tris-HCl, 1 mM MgCl2, and 1 mM EDTA and 10% sucrose) and frozen at −78° C. until used. Saturation binding reactions were initiated by the addition of membrane preparation (protein concentration of 20 μg/well for rat CB2) into wells of a deep well plate containing [^3H]CP 55,940 (120 Ci/mmol, a nonselective CB agonist commercially available from Tocris) in assay buffer (50 mM Tris, 2.5 mM EDTA, 5 mM MgCl2, and 0.5 mg/mL fatty acid free BSA, pH 7.4). After 45 min incubation at 30° C., binding reaction was terminated by the addition of 300 μl/well of cold assay buffer followed by rapid vacuum filtration through a UniFilter-96 GF/C filter plates (pre-soaked in 1 mg/mL BSA for 2 hours). The bound activity was counted in a TopCount using Microscint-20. Saturation experiments were conducted with twelve concentrations of [^3H]CP 55,940 ranging from 0.01 to 8 nM. Competition experiments were conducted with 0.5 nM [^3H]CP 55,940 and five concentrations of displacing ligands selected from the range of 0.01 nM to 10 μM. The addition of 10 μM unlabeled CP 55,940 (Tocris, Ellisville, Mo.) was used to assess nonspecific binding.

The mark [3] stands for this setting: HEK cells, forskolin 18 μM, read-out: rat CB2 cyclase (EC50).
[4] abbreviates: HEK cells, forskolin 37 μM, read-out: rCB1 cyclase (EC50).

pEC50, pKi: −log10 of the molar value. Where two headings read alike, the source gives them in different places.

Chain of rat CB1 receptors (HEK cells) (P20272 whole entry): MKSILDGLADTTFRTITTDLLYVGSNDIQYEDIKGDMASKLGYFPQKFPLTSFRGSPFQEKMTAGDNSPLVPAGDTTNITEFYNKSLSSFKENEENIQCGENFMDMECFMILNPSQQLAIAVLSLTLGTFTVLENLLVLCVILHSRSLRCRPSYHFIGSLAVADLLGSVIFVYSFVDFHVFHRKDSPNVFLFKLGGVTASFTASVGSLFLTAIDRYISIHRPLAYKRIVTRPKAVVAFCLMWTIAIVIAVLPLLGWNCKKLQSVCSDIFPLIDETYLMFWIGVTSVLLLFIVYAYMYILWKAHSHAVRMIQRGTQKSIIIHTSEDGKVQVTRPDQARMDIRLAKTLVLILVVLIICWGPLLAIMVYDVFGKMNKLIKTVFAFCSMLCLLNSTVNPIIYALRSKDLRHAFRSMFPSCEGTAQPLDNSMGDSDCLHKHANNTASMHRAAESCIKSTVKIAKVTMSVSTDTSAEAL
Chain of human CB2 receptors (P34972 whole entry): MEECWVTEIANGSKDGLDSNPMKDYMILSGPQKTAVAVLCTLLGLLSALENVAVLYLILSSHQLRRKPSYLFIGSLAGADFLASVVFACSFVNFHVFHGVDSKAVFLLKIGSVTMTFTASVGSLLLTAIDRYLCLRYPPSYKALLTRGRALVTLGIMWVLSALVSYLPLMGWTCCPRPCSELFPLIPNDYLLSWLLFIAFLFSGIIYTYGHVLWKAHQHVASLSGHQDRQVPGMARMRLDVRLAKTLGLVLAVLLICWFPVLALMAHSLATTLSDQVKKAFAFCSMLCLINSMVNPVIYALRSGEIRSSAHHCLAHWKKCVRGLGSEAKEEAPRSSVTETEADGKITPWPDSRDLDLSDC

What is called pEC50 is −log10 of the EC50, conventionally taken in molar units. As a reminder, the pKi is the negative decadic logarithm of the Ki, by convention in mol/L. Consider `CC(C)(C)c1cn(C[C@H]2CCCO2)/c(=N/C(=O)c2cc(C(F)(F)F)ccc2OCCNCCO)s1` [Example 58, N-[(2Z)-5-tert-butyl-3-[(2R)-tetrahydrofuran-2-ylmethyl]-1,3-thiazol-2(3H)-ylidene]-2-{2-[(2-hydroxyethyl)amino]ethoxy}-5-(trifluoromethyl)benzamide], for which the results for the pEC50 in assay [1] and in assay [2] were 5.59 and 9.74, respectively. Besides, the negative-log Ki (pKi) is 7.47 at human CB2 receptors and 8.00 on rat CB2 receptors.

For the compound `CN1CC[C@H](COc2ccc(C(F)(F)F)cc2C(=O)/N=c2\sc(C(C)(C)C)cn2C[C@H]2CCCO2)C1` [Example 31, N-[(2Z)-5-tert-butyl-3-[(2R)-tetrahydrofuran-2-ylmethyl]-1,3-thiazol-2(3H)-ylidene]-2-{[(3 S)-1-methylpyrrolidin-3-yl]methoxy}-5-(trifluoromethyl)benzamide], the negative logarithm of the EC50 (pEC50) in assay [1] is 4.97; in assay [2], 8.45. For the same compound, the figures for the pKi on human CB2 receptors and at rat CB2 receptors were 7.04 and 7.08, respectively.

Regarding `CC(C)(C)c1cn(C[C@H]2CCCO2)/c(=N/C(=O)c2cc(C(F)(F)F)ccc2OC[C@@H]2CCCO2)s1` [Example 23, N-[(2Z)-5-tert-butyl-3-[(2R)-tetrahydrofuran-2-ylmethyl]-1,3-thiazol-2(3H)-ylidene]-2-[(2S)-tetrahydrofuran-2-ylmethoxy]-5-(trifluoromethyl)benzamide], the figures for the pEC50 in assay [1] and in assay [2] were 6.03 and 9.85, respectively. Also, the values for the pKi at human CB2 receptors and on rat CB2 receptors were 9.30 and 9.52, respectively.

For the compound `CC(C)(C)c1cn(C[C@H]2CCCO2)/c(=N/C(=O)c2cc(C(F)(F)F)ccc2OCc2ccccn2)s1` [Example 18, N-[(2Z)-5-tert-butyl-3-[(2R)-tetrahydrofuran-2-ylmethyl]-1,3-thiazol-2(3H)-ylidene]-2-(pyridin-2-ylmethoxy)-5-(trifluoromethyl)benzamide], the pEC50 in assay [1] is less than 4.57; in assay [2] (setting [3]) it was 8.99. In addition, the values for the negative logarithm of the Ki (pKi) at human CB2 receptors and at rat CB2 receptors were 7.70 and 8.22, respectively.

Regarding `CN1CCC(COc2ccc(C(F)(F)F)cc2C(=O)/N=c2\sc(C(C)(C)C)cn2C[C@H]2CCCO2)CC1` [Example 15, N-[(2Z)-5-tert-butyl-3-[(2R)-tetrahydrofuran-2-ylmethyl]-1,3-thiazol-2(3H)-ylidene]-2-[(1-methylpiperidin-4-yl)methoxy]-5-(trifluoromethyl)benzamide], the pEC50 in assay [1] is 4.89; in assay [2] (setting [3]), 8.20. Moreover, the pKi was 6.00 at human CB2 receptors and 7.08 on rat CB2 receptors.

In the case of `CN1CCC[C@H]1COc1ccc(C#N)cc1C(=O)/N=c1\sc(C(C)(C)C)cn1C[C@H]1CCCO1` [Example 59, N-[(2Z)-5-tert-butyl-3-[(2R)-tetrahydrofuran-2-ylmethyl]-1,3-thiazol-2(3H)-ylidene]-5-cyano-2-{[(2S)-1-methylpyrrolidin-2-yl]methoxy}benzamide], the pEC50 in assay [1] was 5.64; in assay [2] (setting [3]) it was 9.89. Moreover, the negative logarithm of the Ki (pKi) at human CB2 receptors was 7.37; on rat CB2 receptors, 8.03.

As for `CC(C)(C)c1cn(C[C@H]2CCCO2)/c(=N/C(=O)c2cc(C(F)(F)F)ccc2OC[C@H]2CCC[N+]2(C)[O-])s1` (some centres unmarked) [Example 49], the results for the negative-log EC50 (pEC50) in assay [1] (setting [4]) and in assay [2] (setting [3]) were 5.11 and 9.35, respectively. For the same compound, the pKi at human CB2 receptors is 7.62; on rat CB2 receptors, 7.92.

Turning to `CN1CC[C@@H](COc2ccc(C(F)(F)F)cc2C(=O)/N=c2\sc(C(C)(C)C)cn2C[C@H]2CCCO2)C1` [Example 30, N-[(2Z)-5-tert-butyl-3-[(2R)-tetrahydrofuran-2-ylmethyl]-1,3-thiazol-2(3H)-ylidene]-2-{[(3R)-1-methylpyrrolidin-3-yl]methoxy}-5-(trifluoromethyl)benzamide], the pEC50 in assay [1] was 4.92; in assay [2], 8.30. Also, the negative logarithm of the Ki (pKi) on human CB2 receptors was 6.85; on rat CB2 receptors it was 7.54.

Turning to `Cn1cncc1COc1ccc(C(F)(F)F)cc1C(=O)/N=c1\sc(C(C)(C)C)cn1C[C@H]1CCCO1` [Example 67, N-[(2Z)-5-tert-butyl-3-[(2R)-tetrahydrofuran-2-ylmethyl]-1,3-thiazol-2(3H)-ylidene]-2-[(1-methyl-1H-imidazol-5-yl)methoxy]-5-(trifluoromethyl)benzamide], the pEC50 in assay [1] (setting [4]) was less than 4.57. In addition, the pKi is 6.94 at human CB2 receptors and 7.89 on rat CB2 receptors.

Take `CC(C)(C)/C(COc1ccc(C(F)(F)F)cc1C(=O)/N=c1\sc(C(C)(C)C)cn1C[C@H]1CCCO1)=N/O` [Example 70, N-[(2Z)-5-tert-butyl-3-[(2R)-tetrahydrofuran-2-ylmethyl]-1,3-thiazol-2(3H)-ylidene]-2-{[(2Z)-2-(hydroxyimino)-3,3-dimethylbutyl]oxy}-5-(trifluoromethyl)benzamide]: the negative-log EC50 (pEC50) in assay [1] is less than 4.57. The pKi at human CB2 receptors was 7.92; on rat CB2 receptors it was 8.09.

On to `CC(C)(C)NOc1ccc(C(F)(F)F)cc1C(=O)/N=c1\sc(C(C)(C)C)cn1C[C@H]1CCCO1` [Example 65, 2-[(tert-butylamino)oxy]-N-[(2Z)-5-tert-butyl-3-[(2R)-tetrahydrofuran-2-ylmethyl]-1,3-thiazol-2(3H)-ylidene]-5-(trifluoromethyl)benzamide], for which the negative-log EC50 (pEC50) in assay [1] is less than 4.57. Further, the pKi was 8.74 on human CB2 receptors and 9.10 at rat CB2 receptors.

With `CC(COc1ccc(C(F)(F)F)cc1C(=O)/N=c1\sc(C(C)(C)C)cn1C[C@H]1CCCO1)=NO` [Example 73, N-[(2Z)-5-tert-butyl-3-[(2R)-tetrahydrofuran-2-ylmethyl]-1,3-thiazol-2(3H)-ylidene]-2-{[2-(hydroxyimino)propyl]oxy}-5-(trifluoromethyl)benzamide], the negative logarithm of the EC50 (pEC50) in assay [1] (setting [4]) is 5.63. Also, the negative-log Ki (pKi) at human CB2 receptors was 8.74; at rat CB2 receptors, 9.30.

Take `CC(C)(C)NNc1ccc(C(F)(F)F)cc1C(=O)/N=c1\sc(C(C)(C)C)cn1C[C@H]1CCCO1` [Example 39, 2-(2-tert-butylhydrazino)-N-[(2Z)-5-tert-butyl-3-[(2R)-tetrahydrofuran-2-ylmethyl]-1,3-thiazol-2(3H)-ylidene]-5-(trifluoromethyl)benzamide]: the negative-log EC50 (pEC50) in assay [1] (setting [4]) was less than 4.57. The pKi on human CB2 receptors was 8.43; on rat CB2 receptors it was 8.77.

Consider `CC(C)(C)/C(COc1ccc(C(F)(F)F)cc1C(=O)/N=c1\sc(C(C)(C)C)cn1C[C@H]1CCCO1)=N\O` [Example 71, N-[(2Z)-5-tert-butyl-3-[(2R)-tetrahydrofuran-2-ylmethyl]-1,3-thiazol-2(3H)-ylidene]-2-{[(2E)-2-(hydroxyimino)-3,3-dimethylbutyl]oxy}-5-(trifluoromethyl)benzamide], for which the pEC50 in assay [1] was less than 4.57. For the same compound, the negative logarithm of the Ki (pKi) on human CB2 receptors was 8.27; at rat CB2 receptors it was 8.39.
